# Results taken from paper PMC9887672, “Predicting human cardiac QT alterations and pro-arrhythmic effects of compounds with a 3D beating heart-on-chip platform” (Toxicological Sciences, 2022).
# Entries after “also recorded” stand apart in the source; their conditions may differ. Where two headings read alike, the source gives them in different places.
# Assays:
# [1] = cited from earlier work; for fETPC: free effective therapeutic plasma concentration, ref Nguyen et al. (2017), Yamazaki et al. (2018)
# [2] = test system: uHeart 3D cardiac microtissues (h-iPSC-CMs and dermal fibroblasts in fibrin); assay: Drug screening on uHeart: field potential recording (FPDcF, BP, AMP, arrhythmic events, beating cessation); conditions: for Concentration at which the described FPDcF change was seen: aspirine: increment just above LOW threshold, alfuzosin: slight shortening; for [%FPDcF] >LOW, drug concentration: concentration causing FPDcF change by 10% vs baseline; for Arrhythmic events: detected (Y) or not (N) in uHeart; for Effect on FPDcF (in words) / Effect on beating period BP (in words) / Effect on spike amplitude AMP (in words): incremental doses; for Effect on FPDcF (in words): change vs baseline; for TdP risk category proposed from uHeart score: score vs ratio effective concentration/fETPC, Figure 6D; for FPDcF alteration, direction, at [%FPDcF]>HIGH: threshold HIGH = 20% change vs baseline; for FPDcF alteration, direction, at [%FPDcF] >MID: threshold MID = 15% change vs baseline; for Arrhythmic events, lowest detected concentration: value in brackets in Table 2
# Method: Human adult dermal fibroblasts were provided by Lonza Group Ltd. H-iPSC-CMs were thawed according to standard protocols and immediately used. Fibroblasts were expanded at confluency in DMEM (Gibco, 4.5 g l^−1 glucose) supplemented with 10% v/v FBS, 100 U ml^−1 penicillin, 100 μg ml^−1 streptomycin, and 10 mmol HEPES and used at passage 10–11. […] Subsequently, 2 μl of cell solution was inoculated into the central channel of each chamber of the uBeat Platform (provided by BiomimX Srl). The hydrogel was cross-linked in the incubator at 37°C for 8 min before manually adding the plating medium (FUJIFILM Cellular Dynamics Inc.) supplemented with 100 U ml^−1 penicillin, 100 μg ml^−1 streptomycin, and 2 mg ml^−1 of 6-Aminocaproic acid (ACA). […] This medium was used and changed every day for the following 6 days.
# Field potential (FP) measurements (Figure 1B) were performed after 6 or 7 days of culture, when the model expresses a strong spontaneous and synchronous beating. […] An AgCl ground electrode was inserted in one of the 4 cell culture medium reservoirs. Cell culture medium was changed at least 1 h prior to perform the measurements. To execute the tests, uHeart was maintained in the incubator at 37°C with 5% CO2 and the electrodes were connected to an extracellular amplifier (Ext-02b, Npi Electronic GmbH, Germany) with a 1 × 10^4 gain and a bandpass filter between 0.3 Hz and 10 kHz. FPs were acquired with an electronic board (Analog Discovery 2, Digilent, Washington) at a rate of 2000 samples s^−1.
# The cell culture medium was exchanged with fresh serum-free RPMI medium and after 1 h the baseline FP signal was recorded for at least 3 min. Subsequently, the lowest drug dose was administered to the microtissues and incubated at 37°C for 10–20 min before recording the corresponding FP for at least 3 min. Between each incremental dose, a 5-min washing was performed with serum-free RPMI medium.
# Results of BP, FPD, and AMP assessed by the algorithm were compared against manual measurement. BP and FPD were additionally analyzed by applying an initial bandwidth filter to the signal (3rd order Butterworth filter, 0.67–100 Hz, zero phase), to further verify the quality of the estimates obtained. After the validation, the algorithm was used to analyze the FP signal recorded during the pharmacological campaign. Signals not correctly recognized by the software, as verified by visual inspection on the user interface, were manually analyzed.
# For compounds not evoking responses, the maximum tested concentration respect to the fETPC was used.
# A quality control was established to select the signals to be considered for the evaluation of electrophysiological parameters changes in response to increasing concentrations of compounds. […] This inclusion criteria ensured that the developed cardiac microtissues spontaneously beat in a consistent way and allowed to normalize the obtained FP signals with correction methods based on the beating frequency.
# [3] = TdP risk category; ref Blinova et al., 2017; cited from earlier work
# [4] = set-up: method as in Mair et al., 2022; conditions: long incubation, after 7 days; ref Mair et al., 2022; cited from earlier work
# [5] = clinical highest blood drug concentration, ref Blinova et al. (2017), Kopljar et al. (2018), Voelker and Hammer (2012)
Structure (SMILES),"Cmax [1, 5]",fETPC [1],"[%FPDcF] >LOW, drug concentration [2]",Arrhythmic events ([2]; also in words),Effect on FPDcF (in words) [2],TdP risk category proposed from uHeart score [2],"FPDcF alteration, direction, at [%FPDcF]>HIGH [2]","FPDcF alteration, direction, at [%FPDcF] >MID [2]","Arrhythmic events, percentage of uHearts affected [2]",Effect on beating period BP (in words) [2],further results
COc1cc2nc(N(C)CCCNC(=O)C3CCCO3)nc(N)c2cc1OC (stereo not shown) [Alfuzosin],15 nM,0.01 µM,0.3 µM,caused arrhythmic beating,did not showed a peculiar trend,low-risk,↔ [drawing 30],↔ [drawing 29],,,"Concentration at which the described FPDcF change was seen [2]: 300 nM; FPDcF prolongation ([2]; at high concentration (ie,100 µM)): ~10%; Effect on FPDcF (in words) ([2]; listed as alfuzosin): shortening"
CC(=O)Oc1ccccc1C(=O)O [Aspirin],24400 nM,7.1 µM,,,did not change the FPDcF,low-risk,↔ [drawing 33],↔ [drawing 32],,,"Concentration at which the described FPDcF change was seen [2]: 300000 nM; Effect on FPDcF (in words) ([2]; listed as aspirine): increment of the FPDcF just above the LOW threshold only at the highest concentration tested; FPDcF alteration, direction, at [%FPDcF] >LOW ([2]; threshold LOW = 10% change vs baseline): ↔ [drawing 31]"
COc1cc(N)c(Cl)cc1C(=O)NC1CCN(CCCOc2ccc(F)cc2)CC1OC (stereo not shown) [Cisapride],,,,caused arrhythmic beats,slightly decrease in the FPDcF; also recorded: shortened the repolarization time at all considered thresholds; also recorded: did not revealed a FPDcF prolongation,high risk,,,50%,,"Risk CiPa [3]: I; Stop, percentage of uHearts [2]: 25%; uHearts that ceased beating over uHearts tested [2]: 2 over 4; Stop (spontaneous beating cessation) ([2]; Y or N, also in words): interrupted the spontaneous beating of microtissues"
CN(CCOc1ccc(NS(C)(=O)=O)cc1)CCc1ccc(NS(C)(=O)=O)cc1 [Dofetilide],,,,Arrhythmic events were detected,concentration-dependent prolongation of the FPDcF,high risk,,,66%,slightly increased the BP,"Stop, percentage of uHearts [2]: 33%; uHearts that ceased beating over uHearts tested [2]: 1 over 3; Effect on spike amplitude AMP (in words) [2]: incremental decrease in the AMP; Effect on FPDcF (in words) ([2]; listed as dofetilide): prolonged the FPDcF above the defined thresholds; also recorded: dose-related FPDcF prolongation"
Cc1cccc(C)c1OCC(C)N (stereo not shown) [Mexiletine],,2.5 µM,50 µM,,,low-risk,↔ [drawing 21],↔ [drawing 20],,did not show a trend in altering neither the FPDcF nor the BP; also recorded: without majorly affecting the FPDcF or the BP,Concentration at which AMP statistically decreased ([2]; already at medium concentration): 10000 nM; Effect on spike amplitude AMP (in words) [2]: statistically decreased in a concentration-dependent way; also recorded: dose-related statistically significant reduction of the FP amplitude
C=C[C@H]1C[N@@]2CC[C@H]1C[C@@H]2[C@@H](O)c1ccnc2ccc(OC)cc12 [Quinidine],3000 nM,3 µM,0.06 µM,Arrhythmic events were detected,prolonged the FPDcF above the defined thresholds; also recorded: dose-related FPDcF prolongation,high risk,,,50%,slightly increased the BP,"[%FPDcF] >MID, drug concentration ([2]; concentration causing FPDcF change by 15% vs baseline): 1 µM; [%FPDcF]>HIGH, drug concentration ([2]; concentration causing FPDcF change by 20% vs baseline): 10 µM; Arrhythmic events, lowest detected concentration [2]: 0.1 µM"
COc1ccccc1OCC(O)CN1CCN(CC(=O)Nc2c(C)cccc2C)CC1 (stereo not shown) [Ranolazine],,,,generated arrhythmia; also recorded: caused arrhythmic beating,statistically enhanced the repolarization time; also recorded: prolonged the FPDcF; also recorded: dose-related FPDcF prolongation,high-risk,,,20%,increase the BP,Effect on beating period BP (in words) ([2]; listed as ranolazine): rose the BP
CC(C)NCC(O)c1ccc(NS(C)(=O)=O)cc1 (stereo not shown) [Sotalol],,,,did not elicit any arrhythmia; also recorded: not found to provoke arrhythmic events,prolonged the FPDcF above the defined thresholds; also recorded: dose-related FPDcF prolongation,high risk,,,,slightly increased the BP; also recorded: drug dose dependent increase of the BP,
CC(C)(C)c1ccc(C(O)CCCN2CCC(C(O)(c3ccccc3)c3ccccc3)CC2)cc1 (stereo not shown) [Terfenadine],0.29 nM,0.00029 µM,,arrhythmic events,statistically prolonged the FPDcF at high dosages; also recorded: prolongation of the FPDcF,high risk,,,60%,without affecting the BP,"Reduction of compound by absorption in PDMS [4]: about 20%; fETPC in the presence of metabolic inhibition ([1]; patients, cytochrome P450 inhibitor, ref Redfern et al., 2003): about 4 nM; Cmax ([1]; read-out: Cmax or fETPC, clinical value of patients, ref Ando et al., 2017): 0.29 nM; Concentration at which FPDcF was statistically prolonged ([2]; Kruskal-Wallis with Dunn's test): 300 nM; Concentration found effective in uHeart ([2]; as quoted in Discussion): 100000 nM; Arrhythmic events, lowest detected concentration [2]: 0.001 µM"
